In patent US7214688B2 (priority 2000, dated 2007) one finds Kd data, which are given here for one substance.

This assay addresses α7 nAChR subtype (Rattus norvegicus, UniProt Q05941). The format is binding. To be noted: read-out: KD of radioligand (saturation curves, one site model).

α7 nAChR subtype, sequence (Q05941 23-502 limits assumed): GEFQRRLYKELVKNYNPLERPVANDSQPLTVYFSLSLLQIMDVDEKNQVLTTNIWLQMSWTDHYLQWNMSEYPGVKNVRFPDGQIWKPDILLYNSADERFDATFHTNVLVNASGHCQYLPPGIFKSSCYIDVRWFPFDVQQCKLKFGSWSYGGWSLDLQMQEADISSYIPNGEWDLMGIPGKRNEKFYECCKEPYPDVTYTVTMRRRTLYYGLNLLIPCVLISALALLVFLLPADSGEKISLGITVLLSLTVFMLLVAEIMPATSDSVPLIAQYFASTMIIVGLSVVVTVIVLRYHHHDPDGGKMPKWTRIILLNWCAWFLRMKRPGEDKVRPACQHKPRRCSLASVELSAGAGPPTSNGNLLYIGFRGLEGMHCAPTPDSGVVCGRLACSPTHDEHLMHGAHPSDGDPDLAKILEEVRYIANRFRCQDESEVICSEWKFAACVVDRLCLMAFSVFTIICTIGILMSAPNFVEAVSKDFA

On to “125I-α-Bungarotoxin [Example 125I-α-BTX]”, for which the Kd is 1.67 nM.
